Test results: EP0398230B1, “Antiviral, highly water soluble, stable, crystalline salts of 2',3'-dideoxyinoside monohydrate, 2',3'-dideoxy-2',3'-didehydrothymidine monohydrate and 2',3'-dideoxy-2'-fluoroinosine hemihydrate” (priority 1989, dated 1990)
Where two headings read alike, the source gives them in different places.

Columns and labels:
[1] = 5 weeks at 70°C
physchem = details: water, pH 10, water, thermodynamic from solid

Row | Compound | Solid State Stability [1] | Aqueous Solution Stability, loss (1 week at 50°C) [%] | Aqueous Solution Stability, loss (1 week at 70°C) [%] | solubility (physchem) [mg/mL]
1 | OC[C@@H]1CC[C@H](n2cnc3c(O)ncnc32)O1.[Na] [Na-DDI·H2O, sodium-2',3'-dideoxyinosine] | No loss | 5 | 10 | –
2 | O=c1[nH]cnc2c1ncn2[C@@H]1O[C@H](CO)C[C@@H]1F [Sodium F-ddI Hemihydrate, sodium-2',3'-dideoxy-2'-fluoroinosine] | – | – | – | ~400
